Laboratory results from patent EP4227307A1 (Genzyme Corporation, priority 2022, dated 2023).
pIC50: −log10 of the molar value.

Biological target: T1, human recombinant 6His-Nterm SHP2 full-length (Thr2-Arg593) (Homo sapiens, UniProt Q06124)
T1 construct: 6His-Nterm SHP2 full-length (Thr2-Arg593, R&D system); 6His (N); purchased R&D system
T1 sequence (Q06124 2-593): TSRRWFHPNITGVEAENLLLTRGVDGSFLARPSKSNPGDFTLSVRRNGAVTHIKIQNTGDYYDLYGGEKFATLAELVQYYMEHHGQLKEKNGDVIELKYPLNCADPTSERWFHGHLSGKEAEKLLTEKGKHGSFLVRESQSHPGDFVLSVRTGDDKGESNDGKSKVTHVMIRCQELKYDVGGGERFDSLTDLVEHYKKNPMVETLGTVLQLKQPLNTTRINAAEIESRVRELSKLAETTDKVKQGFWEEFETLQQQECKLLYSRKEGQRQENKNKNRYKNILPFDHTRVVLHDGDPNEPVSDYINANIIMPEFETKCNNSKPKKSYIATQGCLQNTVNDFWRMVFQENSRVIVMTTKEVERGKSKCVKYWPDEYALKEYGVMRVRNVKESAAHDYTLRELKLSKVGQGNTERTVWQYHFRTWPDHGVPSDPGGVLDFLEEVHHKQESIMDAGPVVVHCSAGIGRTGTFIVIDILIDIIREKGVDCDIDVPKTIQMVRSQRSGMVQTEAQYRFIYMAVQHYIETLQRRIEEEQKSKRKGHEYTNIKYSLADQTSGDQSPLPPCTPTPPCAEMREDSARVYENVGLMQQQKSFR
Assay: SHP2 Phosphatase Assay (DiFMUP fluorescence)
Type: biochemical
Details: SHP2 0.2 nM pre-incubated with 100 nM bi-phosphorylated activating peptide; compound 1000-0.05 nM, 30 min pre-incubation; DiFMUP 20 µM, 45 min, room temperature; 10-concentration dose-response
Outline: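 SHP2 (0.2 nM) preactivated ≥10 min with 100 nM bis-phosphorylated peptide, then 30 min with compound (10 concentrations, 1000–0.05 nM) at room temperature, pH 7.2 HEPES buffer with DTT. DiFMUP (20 µM, added solution) reacted 45 min, pervanadate-stopped; fluorescence 350/450 nm. IC50 by 4-parameter logistic fit.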

Cc1nc(N2CCC3(CC2)Cc2ncccc2[C@H]3N)c2c(C(F)F)cnn2c1-c1ccccc1 [Compound 146, (5S)-1'-[3-(difluoromethyl)-6-methyl-7-phenyl-pyrazolo [1,5-a]pyrazin-4-yl]spiro[5,7-dihydrocyclopenta[b]pyridine-6,4'-piperidine]-5-amine]
pIC50: < 6.00
